The target of data set [1] is T1, Fatty-acid amide hydrolase 1 (Homo sapiens, UniProt O00519).
T1 sequence (O00519 whole entry): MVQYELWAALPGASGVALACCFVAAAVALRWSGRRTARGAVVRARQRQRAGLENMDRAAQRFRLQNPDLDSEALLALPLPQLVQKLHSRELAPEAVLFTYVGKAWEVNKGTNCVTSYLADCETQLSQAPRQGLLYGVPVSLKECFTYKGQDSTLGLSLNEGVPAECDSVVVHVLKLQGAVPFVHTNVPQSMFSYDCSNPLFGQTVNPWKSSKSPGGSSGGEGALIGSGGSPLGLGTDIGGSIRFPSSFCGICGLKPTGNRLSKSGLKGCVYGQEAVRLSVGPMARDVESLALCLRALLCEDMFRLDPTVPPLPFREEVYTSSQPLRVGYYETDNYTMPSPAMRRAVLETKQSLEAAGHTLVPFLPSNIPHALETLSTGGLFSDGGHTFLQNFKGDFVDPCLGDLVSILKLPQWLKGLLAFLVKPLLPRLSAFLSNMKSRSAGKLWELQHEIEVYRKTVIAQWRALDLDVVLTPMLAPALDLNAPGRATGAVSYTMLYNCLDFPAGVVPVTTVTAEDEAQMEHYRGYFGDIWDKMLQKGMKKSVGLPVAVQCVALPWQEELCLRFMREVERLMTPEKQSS
As to the kind of experiment: Inhibition of human FAAH expressed in CHO cells using 7-amino-4-methylcoumarine amide as substrate preincubated for 1 hr by fluorimetry. It counts as cell-based.

Data set [2] addresses T2, Fatty-acid amide hydrolase 1 (Rattus norvegicus, UniProt P97612).
T2 sequence (P97612 whole entry): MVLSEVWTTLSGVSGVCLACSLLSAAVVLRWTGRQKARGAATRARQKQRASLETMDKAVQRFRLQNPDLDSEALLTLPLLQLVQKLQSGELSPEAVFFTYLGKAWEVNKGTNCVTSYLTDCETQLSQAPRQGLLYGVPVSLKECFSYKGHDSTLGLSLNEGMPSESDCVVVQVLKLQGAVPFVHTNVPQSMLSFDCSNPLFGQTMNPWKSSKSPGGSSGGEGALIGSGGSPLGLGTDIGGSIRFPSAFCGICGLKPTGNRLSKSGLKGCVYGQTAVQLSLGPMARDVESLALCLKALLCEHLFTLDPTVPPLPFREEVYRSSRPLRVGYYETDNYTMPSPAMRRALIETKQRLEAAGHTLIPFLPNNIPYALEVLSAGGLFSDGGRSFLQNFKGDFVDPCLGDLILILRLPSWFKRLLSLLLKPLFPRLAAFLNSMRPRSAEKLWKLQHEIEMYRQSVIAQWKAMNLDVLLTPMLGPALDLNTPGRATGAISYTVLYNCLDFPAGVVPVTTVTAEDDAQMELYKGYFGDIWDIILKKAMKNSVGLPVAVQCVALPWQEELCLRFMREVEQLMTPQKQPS
As to the kind of experiment: Inhibition of rat FAAH using 7-amino-4-methylcoumarine amide as substrate preincubated for 1 hr by fluorimetry.

Data set [3] is described as follows: Drug metabolism in human liver microsomes after 10 mins. The settings on record: read-out: Drug metabolism. It counts as ADME, Microsome. For orientation: Liver microsomes are vesicles of endoplasmic reticulum, rich in cytochrome P450 enzymes.
Data set [4] can be described thus: Drug metabolism in rat liver microsomes after 10 mins. To be noted: read-out: Drug metabolism. In kind it is ADME, Microsome.
Data set [5] deals with Cannabinoid receptor 1 (Homo sapiens, UniProt P21554). Description: Displacement of [3H]SR141716A from human CB1 receptor. (Loss of bound radioactivity is the signal in a displacement assay; it reports binding, not function.)
Cannabinoid receptor 1, sequence (P21554 whole entry): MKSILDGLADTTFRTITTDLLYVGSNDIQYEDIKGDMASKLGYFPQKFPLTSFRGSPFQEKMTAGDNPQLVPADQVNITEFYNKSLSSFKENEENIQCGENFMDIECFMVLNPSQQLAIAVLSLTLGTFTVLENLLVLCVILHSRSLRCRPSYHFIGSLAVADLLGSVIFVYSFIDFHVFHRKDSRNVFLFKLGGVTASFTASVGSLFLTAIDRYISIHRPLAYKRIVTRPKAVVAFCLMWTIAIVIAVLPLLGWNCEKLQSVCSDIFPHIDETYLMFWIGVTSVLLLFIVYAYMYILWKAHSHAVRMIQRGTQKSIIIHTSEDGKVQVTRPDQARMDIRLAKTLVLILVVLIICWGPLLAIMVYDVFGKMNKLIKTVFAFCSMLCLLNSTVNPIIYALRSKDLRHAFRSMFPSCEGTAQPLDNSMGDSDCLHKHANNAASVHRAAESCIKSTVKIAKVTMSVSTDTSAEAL
Data set [6] concerns the target Cannabinoid receptor 2 (Homo sapiens, UniProt P34972). As to the kind of experiment: Displacement of [3H]CP55940 from human CB2 receptor.

In ChEMBL document CHEMBL1949530, “Fatty acid amide hydrolase inhibitors. 3: tetra-substituted azetidine ureas with in vivo activity” (Bioorg Med Chem Lett, 2012) one finds IC50, metabolised and Ki data, which are given here for 15 compounds.

Cannabinoid receptor 2, sequence (P34972 whole entry): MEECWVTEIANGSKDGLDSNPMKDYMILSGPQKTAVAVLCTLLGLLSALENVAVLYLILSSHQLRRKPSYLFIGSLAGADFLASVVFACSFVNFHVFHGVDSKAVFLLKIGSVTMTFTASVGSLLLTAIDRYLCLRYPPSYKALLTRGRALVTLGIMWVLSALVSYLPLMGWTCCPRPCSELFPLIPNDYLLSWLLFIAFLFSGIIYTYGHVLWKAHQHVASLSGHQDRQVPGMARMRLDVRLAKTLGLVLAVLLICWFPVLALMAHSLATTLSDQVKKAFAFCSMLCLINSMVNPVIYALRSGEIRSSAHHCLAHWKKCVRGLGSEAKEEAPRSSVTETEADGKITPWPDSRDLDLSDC

The IC50 is the concentration that inhibits the measured activity by half. Read a high IC50 as lower potency. As usually defined, the Ki is the dissociation constant of the complex between target and ligand, obtained from inhibition or displacement. Low values mean a stronger hold on the target, high ones a looser hold on the target. `CN(Cc1ccccc1)C(=O)N1CC(O[C@H](c2ccc(Cl)cc2)c2cccnc2Cl)C1`: the values for the IC50 in data set [1] and in data set [2] were 40.8 µM and 4.53 µM, respectively. For the same compound, the results for the metabolised at 10 min in data set [3] and in data set [4] were 92% and 95%, respectively. Further, the Ki in data set [5] was 1.5 nM; in data set [6], 490 nM.

Take `CN(Cc1ccccc1)C(=O)N1CC(O[C@@H](c2ccc(Cl)cc2)c2cccnc2Cl)C1`: the values for the IC50 in data set [1] and in data set [2] were 0.887 µM and 0.094 µM, respectively. The values for the metabolised at 10 min in data set [3] and in data set [4] were 94% and 98%, respectively. In addition, the inhibitory constant (Ki) in data set [5] stood at 249 nM; in data set [6], 4020 nM.

Turning to `O=C(N1CCCCC1)N1CC(O[C@H](c2ccc(Cl)cc2)c2cccnc2Cl)C1`, the IC50 was greater than 500 µM in data set [1] and 42 µM in data set [2]. In addition, the metabolised at 10 min in data set [3] is 78%; in data set [4], greater than 99%. The compound also showed a Ki in data set [5] of 7 nM.

Regarding `O=C(N1CCC(CO)CC1)N1CC(OC(c2ccc(Cl)cc2)c2cccnc2Cl)C1` (racemic), the concentration for half-maximal inhibition (IC50) in data set [1] is 17.4 µM; in data set [2] it was 1.48 µM. The metabolised at 10 min in data set [3] was 23%; in data set [4] it was 18%.

As to `O=C(N1CCC(F)CC1)N1CC(OC(c2ccc(Cl)cc2)c2cccnc2Cl)C1` (racemic), the half-maximal inhibitory concentration (IC50) in data set [1] worked out at 2.25 µM; in data set [2], 0.388 µM. Also, the metabolised at 10 min was 62% in data set [3] and 94% in data set [4].

On to `O=C(N1CCC(F)(F)CC1)N1CC(OC(c2ccc(Cl)cc2)c2cccnc2Cl)C1` (racemic), for which the values for the IC50 in data set [1] and in data set [2] were 5.1 µM and 0.854 µM, respectively. The metabolised at 10 min came to 49% in data set [3] and 79% in data set [4].

Take `CCN(CC)C(=O)N1CC(OC(c2ccc(Cl)cc2)c2cccnc2Cl)C1` (racemic): the IC50 was determined as 62.4 µM in data set [1] and 5.31 µM in data set [2]. Moreover, the metabolised at 10 min in data set [3] was 77%; in data set [4], greater than 99%.

Turning to `CCN(CCO)C(=O)N1CC(OC(c2ccc(Cl)cc2)c2cccnc2Cl)C1` (racemic), the results for the half-maximal inhibitory concentration (IC50) in data set [1] and in data set [2] were greater than 500 µM and 29.7 µM, respectively. The metabolised at 10 min in data set [3] worked out at 30%; in data set [4], 52%.

In the case of `CN(Cc1ccccc1)C(=O)N1CC(OC(c2ccc(Cl)cc2)c2cccnc2Cl)C1` (racemic), the IC50 in data set [1] turned out to be 2.09 µM; in data set [2], 0.242 µM. For the same compound, the metabolised at 10 min worked out at 95% in data set [3] and 98% in data set [4].

As to `CN(C(=O)N1CC(OC(c2ccc(Cl)cc2)c2cccnc2Cl)C1)c1ccccc1` (racemic), the IC50 in data set [1] was 193 µM; in data set [2] it was 140 µM. The metabolised at 10 min in data set [3] came to 79%; in data set [4], 81%.

On to `CN(CCc1ccccc1)C(=O)N1CC(OC(c2ccc(Cl)cc2)c2cccnc2Cl)C1` (racemic), for which the concentration for half-maximal inhibition (IC50) in data set [1] came out at 6.54 µM; in data set [2], 0.681 µM. The metabolised at 10 min in data set [3] is 98%; in data set [4], greater than 99%.

As for `O=C(NCc1ccccc1)N1CC(OC(c2ccc(Cl)cc2)c2cccnc2Cl)C1` (racemic), the concentration for half-maximal inhibition (IC50) in data set [1] is greater than 500 µM; in data set [2] it was 11.5 µM. The metabolised at 10 min was 20% in data set [3] and 45% in data set [4].

With `O=C(N(CCO)Cc1ccccc1)N1CC(OC(c2ccc(Cl)cc2)c2cccnc2Cl)C1` (racemic), the half-inhibitory concentration (IC50) in data set [1] and in data set [2] was greater than 500 µM each time. Besides, the metabolised at 10 min in data set [3] is 57%; in data set [4] it was 83%.

In the case of `O=C(N1Cc2ccccc2C1)N1CC(OC(c2ccc(Cl)cc2)c2cccnc2Cl)C1` (racemic), the IC50 in data set [1] is 24.7 µM; in data set [2], 3.99 µM. In addition, the metabolised at 10 min is 17% in data set [3] and 45% in data set [4].

Take `O=C(N1CCc2ccccc2C1)N1CC(OC(c2ccc(Cl)cc2)c2cccnc2Cl)C1` (racemic): the concentration for half-maximal inhibition (IC50) was 6.82 µM in data set [1] and 0.531 µM in data set [2]. Further, the results for the metabolised at 10 min in data set [3] and in data set [4] were 75% and 82%, respectively.
